Test results as given in PubChem BioAssay AID248 (DTP/NCI, 2004).
“And” between values parts separate entries of the source, which are not always exact repeats. Equal values may be shown once. Toxic doses and inconclusive results are not listed. Rule as the data show it: active = T/C of 150% or more; inactive = T/C below 125%. Peptide text beside a SMILES is read from it. * marks the point of attachment. Cbz = O=C(OCc1ccccc1)*

System: L1210 leukemia ip in BDF1 mice, survival T/C
Test: NCI In Vivo Anticancer Drug Screen. Data for tumor model L1210 Leukemia (intraperitoneal) in B6D2F1 (BDF1) mice
Settings: endpoint: mean survival time, higher = longer survival
Outline: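 Ratio derived from survival: compound-dosed mice over vehicle-dosed mice, all bearing a transplantable tumor.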

[1] = dose: 100.0 mg/kg/injection, schedule: Q04DX003 (ip), vehicle: saline
[2] = dose: 200.0 mg/kg/injection, schedule: Q04DX003 (ip), vehicle: saline
[3] = dose: 400.0 mg/kg/injection, schedule: Q04DX003 (ip), vehicle: saline
[4] = dose: 100.0 mg/kg/injection, schedule: Q01DX001 (ip), vehicle: carboxymethylcellulose (CMC)
[5] = dose: 200.0 mg/kg/injection, schedule: Q01DX001 (ip), vehicle: carboxymethylcellulose (CMC)
[6] = dose: 400.0 mg/kg/injection, schedule: Q01DX001 (ip), vehicle: carboxymethylcellulose (CMC)
[7] = dose: 100.0 mg/kg/injection, schedule: Q04DX003 (ip), vehicle: saline with Tween-80
[8] = dose: 200.0 mg/kg/injection, schedule: Q04DX003 (ip), vehicle: saline with Tween-80
[9] = dose: 400.0 mg/kg/injection, schedule: Q04DX003 (ip), vehicle: saline with Tween-80
[10] = dose: 100.0 mg/kg/injection, schedule: Q01DX009 (ip), vehicle: Klucel (hydroxypropylcellulose) (HPC)
[11] = dose: 100.0 mg/kg/injection, schedule: Q04DX003 (ip), vehicle: Klucel (hydroxypropylcellulose) (HPC)
[12] = dose: 200.0 mg/kg/injection, schedule: Q01DX009 (ip), vehicle: Klucel (hydroxypropylcellulose) (HPC)
[13] = dose: 200.0 mg/kg/injection, schedule: Q04DX003 (ip), vehicle: Klucel (hydroxypropylcellulose) (HPC)
[14] = dose: 400.0 mg/kg/injection, schedule: Q01DX009 (ip), vehicle: Klucel (hydroxypropylcellulose) (HPC)
[15] = dose: 400.0 mg/kg/injection, schedule: Q04DX003 (ip), vehicle: Klucel (hydroxypropylcellulose) (HPC)
[16] = dose: 100.0 mg/kg/injection, schedule: Q01DX001 (ip), vehicle: Klucel (hydroxypropylcellulose) (HPC)
[17] = dose: 100.0 mg/kg/injection, schedule: Q04DX002 (ip), vehicle: saline
[18] = dose: 200.0 mg/kg/injection, schedule: Q01DX001 (ip), vehicle: Klucel (hydroxypropylcellulose) (HPC)
[19] = dose: 200.0 mg/kg/injection, schedule: Q04DX002 (ip), vehicle: saline
[20] = dose: 400.0 mg/kg/injection, schedule: Q01DX001 (ip), vehicle: Klucel (hydroxypropylcellulose) (HPC)

Measured: T/C

CN=C(NN(C)C)c1ccc(NC(=O)c2ccc(C(=O)Nc3ccc(C(=NC)NN(C)C)cc3)cc2)cc1
inactive: dose: 2.5 mg/kg/injection, schedule: Q01DX Z (ip), vehicle: carboxymethylcellulose (CMC) 97 % of control | dose: 5.0 mg/kg/injection, schedule: Q01DX Z (ip), vehicle: carboxymethylcellulose (CMC) 111 % of control | dose: 25.0 mg/kg/injection, schedule: Q01DX Z (oral), vehicle: carboxymethylcellulose (CMC) 116 % of control | dose: 50.0 mg/kg/injection, schedule: Q01DX Z (oral), vehicle: carboxymethylcellulose (CMC) 110 % of control | dose: 100.0 mg/kg/injection, schedule: Q01DX Z (oral), vehicle: carboxymethylcellulose (CMC) 102 % of control | dose: 200.0 mg/kg/injection, schedule: Q01DX Z (oral), vehicle: carboxymethylcellulose (CMC) 104 % of control

COC1(c2ccc(Cl)s2)OC1(C)C (configuration not stated)
inactive: dose: 100.0 mg/kg/injection, schedule: Q01DX009 (ip), vehicle: saline 100 % of control | [1] 100 % of control | dose: 200.0 mg/kg/injection, schedule: Q01DX009 (ip), vehicle: saline 96 % of control | [2] 105 % of control | dose: 400.0 mg/kg/injection, schedule: Q01DX009 (ip), vehicle: saline 105 % of control | [3] 96 % of control

O=c1cc(-c2c(O)cc(O)cc2O)oc2cc(O)cc(O)c12
inactive: [4] 94 % of control | [5] 94 % of control | [6] 92 % of control

CCOC(=O)CCSCCC(=O)OCC
inactive: dose: 100.0 mg/kg/injection, schedule: Q01DX001 (ip), vehicle: saline with Tween-80 109 % of control | dose: 200.0 mg/kg/injection, schedule: Q01DX001 (ip), vehicle: saline with Tween-80 101 % of control | dose: 400.0 mg/kg/injection, schedule: Q01DX001 (ip), vehicle: saline with Tween-80 101 % of control

CC1=C2C(=CO[C@H](C)[C@H]2C)C(=O)C(C(=O)O)=C1O
inactive: dose: 12.5 mg/kg/injection, schedule: Q04DX002 (ip), vehicle: saline with Tween-80 88 % of control | dose: 25.0 mg/kg/injection, schedule: Q04DX002 (ip), vehicle: saline with Tween-80 103 % of control | dose: 50.0 mg/kg/injection, schedule: Q04DX002 (ip), vehicle: saline with Tween-80 102 % of control and 88 % of control

CC(C)C(NC(=O)C1CCCN1C(=O)OCc1ccccc1)C(=O)O (stereo not drawn) (Cbz-Pro-Val-OH; configuration not given here)
inactive: dose: 100.0 mg/kg/injection, schedule: Q01DX009 (ip), vehicle: saline sonified 102 % of control | dose: 100.0 mg/kg/injection, schedule: Q04DX003 (ip), vehicle: saline sonified 97 % of control | dose: 200.0 mg/kg/injection, schedule: Q01DX009 (ip), vehicle: saline sonified 92 % of control | dose: 200.0 mg/kg/injection, schedule: Q04DX003 (ip), vehicle: saline sonified 96 % of control | dose: 400.0 mg/kg/injection, schedule: Q01DX009 (ip), vehicle: saline sonified 97 % of control | dose: 400.0 mg/kg/injection, schedule: Q04DX003 (ip), vehicle: saline sonified 97 % of control

CN=C(N)c1ccc(N=C(N)c2ccc(Cl)c(C(N)=Nc3ccc(C(N)=NC)cc3)c2)cc1
inactive: dose: 10.0 mg/kg/injection, schedule: Q01DX Z (ip), vehicle: water 96 % of control | dose: 20.0 mg/kg/injection, schedule: Q01DX Z (ip), vehicle: water 113 % of control

CNC(=O)Cc1ccc2cc(OC)c(OC)cc2c1
inactive: [7] 95 % of control | [8] 101 % of control | [9] 91 % of control

O=[N+]([O-])c1c(Cl)c(Cl)cc(Cl)c1Cl
inactive: [10] 102 % of control and 92 % of control | [11] 93 % of control and 97 % of control | [12] 106 % of control and 91 % of control | [13] 101 % of control | [14] 95 % of control and 92 % of control | [15] 95 % of control and 100 % of control

COCC(=O)O
inactive: [16] 100 % of control | [17] 102 % of control | [18] 96 % of control | [19] 94 % of control | [20] 100 % of control | dose: 400.0 mg/kg/injection, schedule: Q04DX002 (ip), vehicle: saline 97 % of control

Cc1[nH]c2ccccc2c(=O)c1CCC(=O)O
inactive: dose: 100.0 mg/kg/injection, schedule: Q04DX002 (ip), vehicle: saline with Tween-80 88 % of control | dose: 200.0 mg/kg/injection, schedule: Q04DX002 (ip), vehicle: saline with Tween-80 91 % of control | dose: 400.0 mg/kg/injection, schedule: Q04DX002 (ip), vehicle: saline with Tween-80 91 % of control

CNNC(=O)Cc1ccc(OC)cc1
inactive: dose: 50.0 mg/kg/injection, schedule: Q01DX009 (ip), vehicle: saline 100 % of control | dose: 100.0 mg/kg/injection, schedule: Q01DX001 (ip), vehicle: saline 100 % of control | dose: 200.0 mg/kg/injection, schedule: Q01DX001 (ip), vehicle: saline 113 % of control

CCCCCCCCC(CO)CCCCCC (configuration not stated)
inactive: [1] 100 % of control | [2] 106 % of control | [3] 92 % of control

C#CCCCCCCC#CCCCCCCC#C
inactive: dose: 100.0 mg/kg/injection, schedule: Q04DX003 (ip), vehicle: acetone 100 % of control | dose: 200.0 mg/kg/injection, schedule: Q04DX003 (ip), vehicle: acetone 110 % of control

CCCCC(=O)N/N=C/c1cc(OCC)c(OCC)cc1OCC
inactive: [4] 96 % of control | [5] 98 % of control | [6] 91 % of control

Cc1cccc(N=C/C=C/c2ccccc2)c1C
inactive: [10] 94 % of control | [12] 100 % of control | [14] 108 % of control

Cc1ccc(Nc2ccc([N+](=O)[O-])cc2[N+](=O)[O-])c(C)c1
inactive: [10] 94 % of control | [11] 96 % of control | [12] 101 % of control | [13] 91 % of control | [14] 103 % of control | [15] 98 % of control

CCOC(=O)c1ccc(OCCOc2ccc(C(C)(C)CC)cc2)cc1
inactive: [7] 102 % of control | [8] 112 % of control | [9] 108 % of control

O=C(O)c1ccc(I)cc1.[Ni]
inactive: dose: 25.0 mg/kg/injection, schedule: Q04DX002 (ip), vehicle: Klucel (hydroxypropylcellulose) (HPC) 100 % of control | dose: 50.0 mg/kg/injection, schedule: Q04DX002 (ip), vehicle: Klucel (hydroxypropylcellulose) (HPC) 100 % of control

COc1ccc(NC(=O)CCc2ccccc2)cc1
inactive: dose: 12.5 mg/kg/injection, schedule: Q01DX001 (ip), vehicle: Klucel (hydroxypropylcellulose) (HPC) 98 % of control | dose: 25.0 mg/kg/injection, schedule: Q01DX001 (ip), vehicle: Klucel (hydroxypropylcellulose) (HPC) 88 % of control | dose: 50.0 mg/kg/injection, schedule: Q01DX001 (ip), vehicle: Klucel (hydroxypropylcellulose) (HPC) 93 % of control | [16] 86 % of control | [18] 88 % of control | [20] 91 % of control

CC(C)COC(=O)CCCc1ccc(N(CCCl)CCCl)cc1
inactive: [17] 121 % of control | [19] 111 % of control

[N-]=Cc1c(O)cccc1Cl.[N-]=Cc1cc(Cl)ccc1O.[Ni+2]
inactive: dose: 6.25 mg/kg/injection, schedule: Q01DX009 (ip), vehicle: Klucel (hydroxypropylcellulose) (HPC) 96 % of control | dose: 12.5 mg/kg/injection, schedule: Q01DX009 (ip), vehicle: Klucel (hydroxypropylcellulose) (HPC) 93 % of control | dose: 25.0 mg/kg/injection, schedule: Q01DX009 (ip), vehicle: Klucel (hydroxypropylcellulose) (HPC) 95 % of control | [11] 97 % of control | [13] 87 % of control | [15] 86 % of control

O=C(CCBr)Nc1ccc(Cl)cc1C(=O)c1ccccc1
inactive: [10] 102 % of control | [12] 97 % of control | [14] 100 % of control

C/C=C/C(=O)Nc1ccc(Cl)c(Cl)c1
inactive: dose: 100.0 mg/kg/injection, schedule: Q04DX002 (ip), vehicle: Klucel (hydroxypropylcellulose) (HPC) 94 % of control | dose: 200.0 mg/kg/injection, schedule: Q04DX002 (ip), vehicle: Klucel (hydroxypropylcellulose) (HPC) 90 % of control | dose: 400.0 mg/kg/injection, schedule: Q04DX002 (ip), vehicle: Klucel (hydroxypropylcellulose) (HPC) 90 % of control
